Results taken from ChEMBL document CHEMBL5634099, “Pyrrole-thiazolidinone hybrids as a new structural class of broad-spectrum anti-infectives” (Eur J Med Chem, 2023).
In brackets after ≈: the same amount, converted by molar mass.

Key:
Escherichia coli = assay: Antibacterial activity against Escherichia coli ATCC 25922 assessed as bacterial growth inhibition incubated for 16 to 18 hrs by CLSI based susceptibility testing method; assay type: functional; settings: time 16-18 hrs
Staphylococcus aureus [1] = assay: Antibacterial activity against Staphylococcus aureus ATCC 29213 assessed as bacterial growth inhibition incubated for 16 to 18 hrs by CLSI based susceptibility testing method; assay type: functional; settings: time 16-18 hrs
Klebsiella pneumoniae = assay: Antibacterial activity against Klebsiella pneumoniae BAA 1705 assessed as bacterial growth inhibition incubated for 16 to 18 hrs by CLSI based susceptibility testing method; assay type: functional; settings: time 16-18 hrs
Acinetobacter baumannii = assay: Antibacterial activity against Acinetobacter baumannii BAA 1605 assessed as bacterial growth inhibition incubated for 16 to 18 hrs by CLSI based susceptibility testing method; assay type: functional; settings: time 16-18 hrs
Pseudomonas aeruginosa = assay: Antibacterial activity against Pseudomonas aeruginosa ATCC 27853 assessed as bacterial growth inhibition incubated for 16 to 18 hrs by CLSI based susceptibility testing method; assay type: functional; settings: time 16-18 hrs
[2] = test system: Mycobacterium tuberculosis; assay: Antimycobacterial activity against Mycobacterium tuberculosis H37Rv ATCC 27294 assessed as bacterial growth inhibition incubated for 7 days by resazurin dye based assay; assay type: functional; settings: H37Rv ATCC 27294, 168 h, time 7 day
[3] = test system: Mycobacteroides abscessus; assay: Antimycobacterial activity against Mycobacterium abscessus ATCC 19977 assessed as bacterial growth inhibition incubated for 7 days by resazurin dye based assay; assay type: functional; settings: ATCC 19977, 168 h, time 7 day
[4] = test system: Mycolicibacterium fortuitum; assay: Antimycobacterial activity against Mycobacterium fortuitum ATCC 6841 assessed as bacterial growth inhibition incubated for 7 days by resazurin dye based assay; assay type: functional; settings: ATCC 6841, 168 h, time 7 day
Mycobacteroides chelonae = assay: Antimycobacterial activity against Mycobacteroides chelonae ATCC 35752 assessed as bacterial growth inhibition incubated for 7 days by resazurin dye based assay; assay type: functional; settings: ATCC 35752, 168 h, time 7 day
[5] = Cytotoxicity against African green monkey Vero cells assessed as reduction in cell viability incubated for 72 hrs by MTT assay; assay type: toxicity, cell-based; settings: chlorocebus sabaeus
[6] = Selectivity index, ratio of CC50 for African green monkey Vero cells to IC50 for Mycobacterium tuberculosis H37Rv ATCC 27294; assay type: toxicity; settings: read-out: Selectivity Index
[7] = Selectivity index, ratio of CC50 for African green monkey Vero cells to IC50 for Staphylococcus aureus ATCC 29213; assay type: toxicity; settings: read-out: Selectivity Index
Staphylococcus aureus [8] = assay: Antibacterial activity against methicillin-sensitive Staphylococcus aureus ATCC 29213 clinical isolate assessed as bacterial growth inhibition incubated for 16 to 18 hrs by CLSI based susceptibility testing method; assay type: functional; settings: time 16-18 hrs
Staphylococcus aureus [9] = assay: Antibacterial activity against methicillin-resistant Staphylococcus aureus NR 100 clinical isolate assessed as bacterial growth inhibition incubated for 16 to 18 hrs by CLSI based susceptibility testing method; assay type: functional; settings: time 16-18 hrs
Staphylococcus aureus [10] = assay: Antibacterial activity against methicillin-resistant Staphylococcus aureus NR 119 clinical isolate assessed as bacterial growth inhibition incubated for 16 to 18 hrs by CLSI based susceptibility testing method; assay type: functional; settings: time 16-18 hrs
Staphylococcus aureus [11] = assay: Antibacterial activity against methicillin-resistant Staphylococcus aureus NR 129 clinical isolate assessed as bacterial growth inhibition incubated for 16 to 18 hrs by CLSI based susceptibility testing method; assay type: functional; settings: time 16-18 hrs
Staphylococcus aureus [12] = assay: Antibacterial activity against methicillin-resistant Staphylococcus aureus NR 186 clinical isolate assessed as bacterial growth inhibition incubated for 16 to 18 hrs by CLSI based susceptibility testing method; assay type: functional; settings: time 16-18 hrs
Staphylococcus aureus [13] = assay: Antibacterial activity against methicillin-resistant Staphylococcus aureus NR 191 clinical isolate assessed as bacterial growth inhibition incubated for 16 to 18 hrs by CLSI based susceptibility testing method; assay type: functional; settings: time 16-18 hrs
Staphylococcus aureus [14] = assay: Antibacterial activity against methicillin-resistant Staphylococcus aureus NR 192 clinical isolate assessed as bacterial growth inhibition incubated for 16 to 18 hrs by CLSI based susceptibility testing method; assay type: functional; settings: time 16-18 hrs
Staphylococcus aureus [15] = assay: Antibacterial activity against methicillin-resistant Staphylococcus aureus NR 193 clinical isolate assessed as bacterial growth inhibition incubated for 16 to 18 hrs by CLSI based susceptibility testing method; assay type: functional; settings: time 16-18 hrs
Staphylococcus aureus [16] = assay: Antibacterial activity against methicillin-resistant Staphylococcus aureus NR 194 clinical isolate assessed as bacterial growth inhibition incubated for 16 to 18 hrs by CLSI based susceptibility testing method; assay type: functional; settings: time 16-18 hrs
Staphylococcus aureus [17] = assay: Antibacterial activity against methicillin-resistant Staphylococcus aureus NR 198 clinical isolate assessed as bacterial growth inhibition incubated for 16 to 18 hrs by CLSI based susceptibility testing method; assay type: functional; settings: time 16-18 hrs
Staphylococcus aureus [18] = assay: Antibacterial activity against vancomycin-resistant Staphylococcus aureus VRS 1 clinical isolate assessed as bacterial growth inhibition incubated for 16 to 18 hrs by CLSI based susceptibility testing method; assay type: functional; settings: time 16-18 hrs
Staphylococcus aureus [19] = assay: Antibacterial activity against vancomycin-resistant Staphylococcus aureus VRS 4 clinical isolate assessed as bacterial growth inhibition incubated for 16 to 18 hrs by CLSI based susceptibility testing method; assay type: functional; settings: time 16-18 hrs
Staphylococcus aureus [20] = assay: Antibacterial activity against vancomycin-resistant Staphylococcus aureus VRS 12 clinical isolate assessed as bacterial growth inhibition incubated for 16 to 18 hrs by CLSI based susceptibility testing method; assay type: functional; settings: time 16-18 hrs
Staphylococcus aureus [21] = assay: Antibiofilm activity against Staphylococcus aureus ATCC 29213 assessed as reduction in biofilm formation at 10 times MIC incubated for 24 hrs by absorbance based assay relative to control; assay type: functional; parameters: scale not given: the % may be the effect or the level left

| SMILES | MIC (Escherichia coli) [µg/mL] | MIC (Staphylococcus aureus [1]) [µg/mL] | MIC (Klebsiella pneumoniae) [µg/mL] | MIC (Acinetobacter baumannii) [µg/mL] | MIC (Pseudomonas aeruginosa) [µg/mL] | MIC [2] [µg/mL] | MIC [3] [µg/mL] | MIC [4] [µg/mL] | MIC (Mycobacteroides chelonae) [µg/mL] | MIC (Staphylococcus aureus [8]) [µg/mL] | MIC (Staphylococcus aureus [9]) [µg/mL] | MIC (Staphylococcus aureus [10]) [µg/mL] | MIC (Staphylococcus aureus [11]) [µg/mL] | MIC (Staphylococcus aureus [12]) [µg/mL] | MIC (Staphylococcus aureus [13]) [µg/mL] | MIC (Staphylococcus aureus [14]) [µg/mL] | MIC (Staphylococcus aureus [15]) [µg/mL] | MIC (Staphylococcus aureus [18]) [µg/mL] | MIC (Staphylococcus aureus [19]) [µg/mL] | MIC (Staphylococcus aureus [20]) [µg/mL] | other results |
| --- | --- | --- | --- | --- | --- | --- | --- | --- | --- | --- | --- | --- | --- | --- | --- | --- | --- | --- | --- | --- | --- |
| Cc1nc(/N=C2\NC(=O)/C(=C/c3cc(C)n(-c4cccc(Cl)c4)c3C)S2)sc1C | > 64 | > 64 | > 64 | > 64 | > 64 | 4 (≈ 9.03 µM) | > 64 | > 64 | > 64 |  |  |  |  |  |  |  |  |  |  |  |  |
| Cc1nc(/N=C2\NC(=O)/C(=C/c3cc(C)n(-c4ccccc4Br)c3C)S2)sc1C | > 64 | > 64 | > 64 | > 64 | > 64 | 4 (≈ 8.21 µM) | > 64 | > 64 | > 64 |  |  |  |  |  |  |  |  |  |  |  |  |
| Cc1ccc(-n2c(C)cc(/C=C3\S/C(=N/c4nccs4)NC3=O)c2C)cc1C | > 64 | 16 (≈ 39.2 µM) | > 64 | > 64 | > 64 | 0.5 (≈ 1.22 µM) | > 64 | > 64 | > 64 |  |  |  |  |  |  |  |  |  |  |  | CC50 at 72 h [5]: 40 µg/mL (≈ 97.9 µM); selectivity ratio [6]: 80 |
| Cc1nc(/N=C2\NC(=O)/C(=C/c3cc(C)n(-c4ccc([N+](=O)[O-])c(C(F)(F)F)c4)c3C)S2)sc1C | > 64 | 16 (≈ 30.7 µM) | > 64 | > 64 | > 64 | > 64 | > 64 | > 64 | > 64 |  |  |  |  |  |  |  |  |  |  |  |  |
| Cc1nc(/N=C2\NC(=O)/C(=C/c3cc(C)n(-c4ccc(N5CCOCC5)cc4)c3C)S2)sc1C | > 64 | 64 (≈ 130 µM) | > 64 | > 64 | > 64 | > 64 | > 64 | > 64 | > 64 |  |  |  |  |  |  |  |  |  |  |  |  |
| Cc1nc(/N=C2\NC(=O)/C(=C/c3cc(C)n(-c4cccc(F)c4)c3C)S2)sc1C | > 64 | > 64 | > 64 | > 64 | > 64 | 64 (≈ 150 µM) | > 64 | > 64 | > 64 |  |  |  |  |  |  |  |  |  |  |  |  |
| COc1ccccc1-n1c(C)cc(/C=C2\S/C(=N/c3nccs3)NC2=O)c1C | > 64 | 0.5 (≈ 1.22 µM) | > 64 | > 64 | > 64 | 2 (≈ 4.87 µM) | > 64 | > 64 | > 64 | 0.5 (≈ 1.22 µM) | 1 (≈ 2.44 µM) | 2 (≈ 4.87 µM) | 2 (≈ 4.87 µM) | 1 (≈ 2.44 µM) | 2 (≈ 4.87 µM) | 2 (≈ 4.87 µM) | 2 (≈ 4.87 µM) | 2 (≈ 4.87 µM) | 2 (≈ 4.87 µM) | 2 (≈ 4.87 µM) | CC50 at 72 h [5]: 40 µg/mL (≈ 97.4 µM); selectivity ratio [7]: 80; MIC (Staphylococcus aureus [16]): 2 µg/mL (≈ 4.87 µM); MIC (Staphylococcus aureus [17]): 2 µg/mL (≈ 4.87 µM); Activity (Staphylococcus aureus [21]): >11% |
| Cc1nc(/N=C2\NC(=O)/C(=C/c3cc(C)n(-c4ccccc4Cl)c3C)S2)sc1C | > 64 | > 64 | > 64 | > 64 | > 64 | 2 (≈ 4.51 µM) | > 64 | > 64 | > 64 |  |  |  |  |  |  |  |  |  |  |  |  |
| C[C@H]1COc2c(N3CCN(C)CC3)c(F)cc3c(=O)c(C(=O)O)cn1c23 [LEVOFLOXACIN ANHYDROUS] |  | 0.25 (≈ 0.692 µM) | 64 (≈ 177 µM) |  |  |  |  |  |  | 0.25 (≈ 0.692 µM) | 0.25 (≈ 0.692 µM) | 16 (≈ 44.3 µM) | 0.25 (≈ 0.692 µM) | 4 (≈ 11.1 µM) | 16 (≈ 44.3 µM) | 8 (≈ 22.1 µM) | 32 (≈ 88.6 µM) | 32 (≈ 88.6 µM) | > 64 | 32 (≈ 88.6 µM) | MIC (Staphylococcus aureus [16]): 0.125 µg/mL (≈ 0.346 µM); MIC (Staphylococcus aureus [17]): 32 µg/mL (≈ 88.6 µM); Activity (Staphylococcus aureus [21]): 10% |
| C[C@@H](O)[C@H]1C(=O)N2C(C(=O)O)=C(S[C@@H]3CN[C@H](C(=O)N(C)C)C3)[C@H](C)[C@H]12 [MEROPENEM] |  |  |  |  |  |  |  |  |  | 0.125 (≈ 0.326 µM) | 32 (≈ 83.4 µM) | 64 (≈ 167 µM) | 2 (≈ 5.22 µM) | 4 (≈ 10.4 µM) | 32 (≈ 83.4 µM) | 8 (≈ 20.9 µM) | 64 (≈ 167 µM) | 64 (≈ 167 µM) | 32 (≈ 83.4 µM) | 4 (≈ 10.4 µM) | MIC (Staphylococcus aureus [16]): 1 µg/mL (≈ 2.61 µM); MIC (Staphylococcus aureus [17]): 32 µg/mL (≈ 83.4 µM) |
| COc1cccc(OC)c1C(=O)N[C@@H]1C(=O)N2[C@@H]1SC(C)(C)[C@@H]2C(=O)O [METHICILLIN] |  |  |  |  |  |  |  |  |  | 1 (≈ 2.63 µM) | > 64 | > 64 | 32 (≈ 84.1 µM) | 64 (≈ 168 µM) | > 64 | > 64 | > 64 | > 64 | > 64 | > 64 | MIC (Staphylococcus aureus [16]): 32 µg/mL (≈ 84.1 µM); MIC (Staphylococcus aureus [17]): > 64 µg/mL |
| CN[C@H](CC(C)C)C(=O)N[C@H]1C(=O)N[C@@H](CC(N)=O)C(=O)N[C@H]2C(=O)N[C@H]3C(=O)N[C@H](C(=O)N[C@H](C(=O)O)c4cc(O)cc(O)c4-c4cc3ccc4O)[C@H](O)c3ccc(c(Cl)c3)Oc3cc2cc(c3O[C@@H]2O[C@H](CO)[C@@H](O)[C@H](O)[C@H]2O[C@H]2C[C@](C)(N)[C@H](O)[C@H](C)O2)Oc2ccc(cc2Cl)[C@H]1O [VANCOMYCIN] |  |  |  |  |  |  |  |  |  |  |  |  |  |  |  |  |  | > 64 | > 64 | > 64 | Activity (Staphylococcus aureus [21]): 7.7% |
